These are literature values, as cited in US20100160295A1, “TREATMENT OF RESTLESS LEG SYNDROME AND SLEEP DISORDERS” (SYNOSIA THERAPEUTICS, priority 2008, published 2010).

This data set relates to RLS patients. The note with it: RLS treatment, cited from earlier work.

As to `N[C@@H](Cc1ccc(O)c(O)c1)C(=O)O` [levidopa], the “augmentation (worsening of symptoms following initiation of therapy), patients affected” value (estimated) is 50-85%. `CCCN[C@H]1CCc2nc(N)sc2C1` [Pramipexole]: the “major side effects reported” value is “insomnia, dizziness, constipation, asthenia and hallucinations”.
